From paper PMC5354814, “In silico and in vitro drug screening identifies new therapeutic approaches for Ewing sarcoma” (Oncotarget, 2016)
Where a name gives a salt, the structure may show the parent alone. Read-outs that look alike come from different tables or passages of the source.

What was measured:
Type in all cases: cell-based
A673 [1] = experiment: Hits validation, dose-response cell proliferation (CellTiter-Glo)
Protocol: (§1) For hits validation and combination study, cells were harvested and aliquoted into 384-well plates at concentrations of 750–1,500 cells per well in a total of 20 μl/well using a Matrix Wellmate (Thermo Scientific). Five μl of culture media containing either vehicles or drug were added to each well the next day (drug concentrations range from 1 nmol/L to 50 μmol/L). For combination study, selected drugs were archived in robotically accessible plates, to which media was added in preparation for addition to master plates by a Nimbus 96 liquid-dispensing workstation (Hamilton). Liquid transfers to dilution and assay plates were handled using the same workstation. Each 384-well master plate contained four 9 by 9 dose-matrix blocks, with eight serial two-fold dilutions (concentrations range from 7.8 nmol/L to 1 μmol/L). Additional wells were reserved for untreated, and vehicle-treated control wells. Cell proliferation was evaluated using Cell-Titer Glo® reagents (Promega). IC50 values were determined for each drug using SigmaPlot (Systat Software). The combination index values were calculated using SigmaPlot (Systat Software) and CompuSyn.

CHLA-258 = experiment: as above
Protocol: as §1

COG-E-352 = experiment: as above
Protocol: as §1

Hs 822.T. = experiment: as above
Protocol: as §1

Hs 863.T. = experiment: as above
Protocol: as §1

RD-ES [2] = experiment: as above
Protocol: as §1

SK-ES-1 [3] = experiment: as above; details: 12-point dose-response 50 μmol/L to 1 nmol/L, mean ± SD
Protocol: as §1

TC-71 = experiment: as above
Protocol: as §1

Hs 919.T. [4] = experiment: as above
Protocol: These drugs were chosen based on their known mechanisms and safety profiles. We also tested the synergy between these drug hits (Supplementary Figures S6–S11). […] We evaluated the anti-proliferation effect in combination treatments using the EWS and control cell lines.
as §1

A673 [5] = experiment: In vitro high-throughput screen of FDA-approved drug library (CellTiter-Glo); details: Homo sapiens, A673; 1 μmol/L drug, 72 hours; read-out: % Inhibition A673
Protocol: (§2) We screened, in parallel to the three computational approaches, an FDA-approved drug library containing 2,316 drugs (1,536 unique chemical entities). […] The drug screening study protocol employed is summarized in Supplementary Table S1.
(§3) Cells were grown to 80–90% confluence, harvested and aliquoted into 384-well plates (black μClear microplates, Greiner bio-one, Germany) at concentrations of 750–1,500 cells per well in a total volume of 25 μl/well using a Matrix Wellmate (Thermo Scientific). Cells were cultured for 72 hours in a 5% CO2 atmosphere at 37°C. Aliquots of 25 μl CellTiter-Glo® Reagent (Promega) were added directly to each well, the plates were incubated at room temperature for 20 min and the luminescence signal was measured according to the manufacturer's protocol. The measurements were made using Infinite® M200 Pro plate reader (Tecan, Switzerland). […] Data were normalized to percentage inhibition. […]
(§4) (A) Color scale for drug inhibition values. […]

Hs 919.T. [6] = experiment: as above; details: 1 μmol/L drug, 72 hours, control cell line; read-out: % Inhibition Hs 919.T.
Protocol: as §2, §3, §4

RD-ES [7] = experiment: as above; details: RD-ES; 1 μmol/L drug, 72 hours; read-out: % Inhibition RD-ES
Protocol: as §2, §3, §4

SK-ES-1 [8] = experiment: as above; details: Homo sapiens, SK-ES1; 1 μmol/L drug, 72 hours; read-out: % Inhibition SK-ES-1
Protocol: as §2, §3, §4

[9] = Homo sapiens, A673, 12-point dose-response 50 μmol/L to 1 nmol/L, mean ± SD
[10] = 12-point dose-response 50 μmol/L to 1 nmol/L, mean ± SD
[11] = control cell line, 12-point dose-response, mean ± SD
[12] = RD-ES, 12-point dose-response 50 μmol/L to 1 nmol/L, mean ± SD
[13] = TC-71, 12-point dose-response 50 μmol/L to 1 nmol/L, mean ± SD

Compound	IC50 (A673 [1]; [9]) [µM]	IC50 (CHLA-258; [10]) [µM]	IC50 (COG-E-352; [10]) [µM]	IC50 (Hs 822.T.; [11]) [µM]	IC50 (Hs 863.T.; [11]) [µM]	IC50 (RD-ES [2]; [12]) [µM]	IC50 (SK-ES-1 [3]; Homo sapiens, SK-ES1) [µM]	IC50 (TC-71; [13]) [µM]	IC50 (Hs 919.T. [4]; [11]) [µM]	other results
COc1cc2nc(N(C)CCCNC(=O)C3CCCO3)nc(N)c2cc1OC (stereo not shown) [Alfuzosin]	> 50	> 50	> 50	> 50	> 50	> 50	> 50	> 50	> 50	–
COc1ccc(C[C@H]2NC[C@H](O)[C@H]2OC(C)=O)cc1 [Anisomycin]	–	0.08 ± 0.01	0.02 ± 0.01	0.15 ± 0.05	0.2 ± 0.01	–	–	–	0.15 ± 0.02	IC50 (A673 [1]; [10]): 0.12 ± 0.01 µM; IC50 (RD-ES [2]; [10]): 0.15 ± 0.02 µM; IC50 (SK-ES-1 [3]): 0.2 ± 0.01 µM; IC50 (TC-71; [10]): 0.04 ± 0.01 µM
CC(C)C[C@H](NC(=O)[C@H](Cc1ccccc1)NC(=O)c1cnccn1)B(O)O [Bortezomib]	0.01 ± 0.003	0.007	0.005	0.45 ± 0.08	0.18 ± 0.03	0.01 ± 0.001	0.02 ± 0.002	0.005 ± 0.0081	0.17 ± 0.003	–
CN(C)CCCN1c2ccccc2Sc2ccc(Cl)cc21 [Chlorpromazine]	10.6 ± 2.15	15.3 ± 4.55	16.1 ± 2.29	16.8 ± 3.22	18.4 ± 3.07	> 25	> 25	17.6 ± 8.63	15.5 ± 2.09	–
COc1cccc2c1C(=O)c1c(O)c3c(c(O)c1C2=O)C[C@@](O)(C(C)=O)C[C@@H]3O[C@H]1C[C@H](N)[C@H](O)[C@H](C)O1 [Daunorubicin]	0.05 ± 0.02	< 0.003	< 0.003	0.15 ± 0.12	0.18 ± 0.08	0.05 ± 0.03	0.04 ± 0.03	0.0046 ± 0.0004	0.42 ± 0.15	–
COc1cc2nc(N3CCN(C(=O)C4COc5ccccc5O4)CC3)nc(N)c2cc1OC (stereo not shown) [Doxazosin]	5.6 ± 1.52	16.1 ± 6.78	17.1 ± 6.58	15.7 ± 2.12	14.6 ± 3.02	> 25	20.4 ± 5.87	22.5 ± 9.35	18.5 ± 3.27	–
COc1c2ccoc2nc2c(OC)c(OCC(O)C(C)(C)O)ccc12 (stereo not shown) [Evoxine]	> 50	> 50	> 50	> 50	> 50	> 50	> 50	> 50	> 50	–
O=C(O)CCC(=O)c1ccc(-c2ccccc2)cc1 [Fenbufen]	> 50	> 50	> 50	> 50	> 50	> 50	> 50	> 50	> 50	–
OCCN1CCN(CCCN2c3ccccc3Sc3ccc(C(F)(F)F)cc32)CC1 [Fluphenzaine]	–	19 ± 6.79	16.1 ± 7.51	22.7 ± 7.23	20.5 ± 2.88	–	–	–	15.5 ± 3.68	IC50 (A673 [1]; [10]): 10.5 ± 2.89 µM; IC50 (RD-ES [2]; [10]): 14.3 ± 3.21 µM; IC50 (SK-ES-1 [3]): 16.3 ± 3.66 µM; IC50 (TC-71; [10]): 17 ± 6.68 µM
COC1=C2C[C@@H](C)C[C@H](OC)[C@H](O)[C@@H](C)/C=C(\C)[C@H](OC(N)=O)[C@@H](OC)/C=C\C=C(/C)C(=O)NC(=CC1=O)C2=O [Geldanamycin]	1.93 ± 0.05	< 0.003	< 0.003	> 20	> 20	0.05 ± 0.003	0.03 ± 0.002	< 0.003	> 20	–
c1coc(CNc2ncnc3[nH]cnc23)c1 [Kinetin]	> 50	> 50	> 50	> 50	> 50	> 50	> 50	> 50	> 50	–
CN1C[C@H](CO)C=C2c3cccc4[nH]cc(c34)C[C@H]21 [Lysergol]	–	> 50	> 50	> 50	> 50	–	–	–	> 50	IC50 (A673 [1]; [10]): > 50 µM; IC50 (RD-ES [2]; [10]): > 50 µM; IC50 (SK-ES-1 [3]): > 50 µM; IC50 (TC-71; [10]): > 50 µM
Nc1ccccc1NC(=O)c1ccc(CNC(=O)OCc2cccnc2)cc1 [MS275]	2.5 ± 1.02	0.15 ± 0.03	1.47 ± 0.54	> 25	> 25	2 ± 0.85	2.4 ± 1.01	1.53 ± 0.49	> 50	–
CN(C)CCOC(=O)COc1ccc(Cl)cc1 [Meclofenoxate]	> 50	> 50	> 50	> 50	> 50	> 50	> 50	> 50	> 50	–
CC1=CC(=O)c2ccccc2C1=O [Menadione]	6.8 ± 1.35	3.64 ± 2.08	5.62 ± 1.31	12.2 ± 2.12	14.2 ± 3.2	10.6 ± 3.2	5.56 ± 1.24	2.94 ± 3.48	15.8 ± 2.35	–
O=C(Nc1ccc([N+](=O)[O-])cc1Cl)c1cc(Cl)ccc1O [Niclosamide]	7.02 ± 1.23	0.7 ± 0.14	0.42 ± 0.07	15.2 ± 3.51	10.5 ± 2.66	8.54 ± 1.55	12.5 ± 2.36	0.79 ± 0.47	10.6 ± 2.84	–
COc1cc(NC(C)CCCN)c2ncccc2c1 (stereo not shown) [Primaquine]	32.5 ± 6.58	7.14 ± 2.21	13.3 ± 4.09	> 25	> 25	> 25	> 25	14.3 ± 3.71	> 50	–
CC(=O)[C@H]1CC[C@H]2[C@@H]3CCC4=CC(=O)CC[C@]4(C)[C@H]3CC[C@]12C [Progesterone]	> 50	11.5 ± 5.31	24.9 ± 5.85	> 50	> 50	> 50	> 50	> 50	> 50	–
COc1ccc(C[C@H](N)C(=O)N[C@H]2[C@@H](O)[C@H](n3cnc4c(N(C)C)ncnc43)O[C@@H]2CO)cc1 [Puromycin]	0.25 ± 0.01	0.06 ± 0.02	0.05 ± 0.01	0.55 ± 0.13	1.02 ± 0.26	0.35 ± 0.03	0.35 ± 0.1	0.08 ± 0.05	0.89 ± 0.03	–
CO[C@H]1C[C@@H]2CC[C@@H](C)[C@@](O)(O2)C(=O)C(=O)N2CCCC[C@H]2C(=O)O[C@H]([C@H](C)C[C@@H]2CC[C@@H](O)[C@H](OC)C2)CC(=O)[C@H](C)/C=C(\C)[C@@H](O)[C@@H](OC)C(=O)[C@H](C)C[C@H](C)/C=C/C=C/C=C/1C [Rapamycin]	–	–	–	–	–	–	–	–	–	inhibition at 1 µM (A673 [5]): 67%; inhibition at 1 µM (Hs 919.T. [6]): < 50%; inhibition at 1 µM (RD-ES [7]): 62%; inhibition at 1 µM (SK-ES-1 [8]): 51%
Nc1nc(=S)c2ncn([C@@H]3O[C@H](CO)[C@@H](O)[C@H]3O)c2[nH]1 [Thioguanosine]	–	–	–	–	–	–	–	–	–	inhibition at 1 µM (A673 [5]): 73%; inhibition at 1 µM (Hs 919.T. [6]): < 50%; inhibition at 1 µM (RD-ES [7]): < 50%; inhibition at 1 µM (SK-ES-1 [8]): 64%
Clc1ccccc1CN1CCc2sccc2C1 [Ticlopidine]	–	–	–	–	–	–	–	–	–	inhibition at 1 µM (A673 [5]): 66%; inhibition at 1 µM (Hs 919.T. [6]): < 50%; inhibition at 1 µM (RD-ES [7]): < 50%; inhibition at 1 µM (SK-ES-1 [8]): < 50%
CC[C@@]1(O)C(=O)OCc2c1cc1n(c2=O)Cc2cc3c(CN(C)C)c(O)ccc3nc2-1 [Topotecan HCl]	–	–	–	–	–	–	–	–	–	inhibition at 1 µM (A673 [5]): 97%; inhibition at 1 µM (Hs 919.T. [6]): < 50%; inhibition at 1 µM (RD-ES [7]): 97%; inhibition at 1 µM (SK-ES-1 [8]): 96%
O=c1[nH]c(=O)n([C@H]2C[C@H](O)[C@@H](CO)O2)cc1C(F)(F)F [Trifluridine]	–	–	–	–	–	–	–	–	–	inhibition at 1 µM (A673 [5]): < 50%; inhibition at 1 µM (Hs 919.T. [6]): < 50%; inhibition at 1 µM (RD-ES [7]): 71%; inhibition at 1 µM (SK-ES-1 [8]): < 50%
(R)-Apomorphine	–	–	–	–	–	–	–	–	–	IC50 (A673 [1]): 8.52 ± 2.14 µM; IC50 (CHLA-258): 14.7 ± 6.86 µM; IC50 (COG-E-352): 4.01 ± 1.55 µM; IC50 (Hs 822.T.): 14.3 ± 1.47 µM; IC50 (Hs 863.T.): 15.2 ± 2.19 µM; IC50 (RD-ES [2]): 7.85 ± 1.69 µM; IC50 (TC-71): 17.3 ± 2.21 µM; IC50 (Hs 919.T. [4]): 16.7 ± 3.02 µM
